# Results from ChEMBL document CHEMBL1201862, “PubChem BioAssay data set” (2004).
#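 Dose response: 5 concentrations. Exposure: 48 h. Format: 96-well plates. Endpoint: linear interpolation; highest concentration if not reached. GI50 = concentration required for 50% inhibition of growth.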 Calls of active or inactive are those of the source. Cut-off read from the data, not from the text of the source: active = GI50 up to about 1.1 µM and inactive = higher.
# Experiments:
# Assay in all cases: NCI tumour cell line growth inhibition, 48 h
# [1] = tested on: RXF 393
# [2] = tested on: SR
# [3] = tested on: ACHN
# [4] = tested on: IGROV-1
# [5] = tested on: SW-620
# [6] = tested on: MCF7
# [7] = tested on: M14
# [8] = tested on: CCRF-CEM
# [9] = tested on: NCI-H460
# [10] = tested on: TK-10
# [11] = tested on: T47D
# [12] = tested on: NCI/ADR-RES
# [13] = tested on: Malme-3M
# [14] = tested on: MDA-N
# [15] = tested on: MDA-MB-435
# [16] = tested on: COLO 205
# [17] = tested on: LOX IMVI
# [18] = tested on: NCI-H522
# [19] = tested on: 786-0
# [20] = tested on: UACC-62
# [21] = tested on: OVCAR-5
# [22] = tested on: OVCAR-8
# [23] = tested on: U-251
# [24] = tested on: A549
# [25] = tested on: Hs-578T
# [26] = tested on: PC-3
# [27] = tested on: KM12
# [28] = tested on: SK-OV-3
# [29] = tested on: RPMI-8226
# [30] = tested on: K562
# [31] = tested on: MDA-MB-231
# [32] = tested on: OVCAR-4
# [33] = tested on: BT-549
# [34] = tested on: SK-MEL-2
# [35] = tested on: SF-268
# [36] = tested on: DU-145
# [37] = tested on: SNB-19
# [38] = tested on: HT-29
# [39] = tested on: A498
# [40] = tested on: SK-MEL-5
# [41] = tested on: HCC 2998
# [42] = tested on: CAKI-1
# [43] = tested on: UO-31
# [44] = tested on: SN12C
# [45] = tested on: SF-295
# [46] = tested on: NCI-H226
# [47] = tested on: SK-MEL-28
# [48] = tested on: HCT-116
# [49] = tested on: EKVX
# [50] = tested on: HCT-15
# [51] = tested on: HOP-62
# [52] = tested on: UACC-257
# [53] = tested on: SNB-75
# [54] = tested on: MOLT-4
# [55] = tested on: OVCAR-3
# [56] = tested on: NCI-H23
# [57] = tested on: SF-539
# [58] = tested on: HL-60
smiles,measurement,setting,value
O/N=C1/Nc2ccccc2C(=S)N2CSCC12 (stereo unspecified),GI50,[1],> 100 µM (inactive)
same,GI50,[2],22.9 µM (inactive)
same,GI50,[3],> 100 µM (inactive)
same,GI50,[4],> 100 µM (inactive)
same,GI50,[5],35.6 µM (inactive)
same,GI50,[6],52.5 µM (inactive)
same,GI50,[7],81.3 µM (inactive)
same,GI50,[8],20.2 µM (inactive)
same,GI50,[9],17.3 µM (inactive)
same,GI50,[10],> 100 µM (inactive)
same,GI50,[11],54.2 µM (inactive)
same,GI50,[12],> 100 µM (inactive)
same,GI50,[13],> 100 µM (inactive)
same,GI50,[14],18.3 µM (inactive)
same,GI50,[15],19.4 µM (inactive)
same,GI50,[16],41.9 µM (inactive)
same,GI50,[17],62.8 µM (inactive)
same,GI50,[18],37 µM (inactive)
same,GI50,[19],58.2 µM (inactive)
same,GI50,[20],87.5 µM (inactive)
same,GI50,[21],> 100 µM (inactive)
same,GI50,[22],> 100 µM (inactive)
same,GI50,[23],> 100 µM (inactive)
same,GI50,[24],83.2 µM (inactive)
same,GI50,[25],> 100 µM (inactive)
same,GI50,[26],73.8 µM (inactive)
same,GI50,[27],33 µM (inactive)
same,GI50,[28],> 100 µM (inactive)
same,GI50,[29],> 100 µM (inactive)
same,GI50,[30],22.8 µM (inactive)
same,GI50,[31],> 100 µM (inactive)
same,GI50,[32],> 100 µM (inactive)
same,GI50,[33],> 100 µM (inactive)
same,GI50,[34],> 100 µM (inactive)
same,GI50,[35],78 µM (inactive)
same,GI50,[36],> 100 µM (inactive)
same,GI50,[37],50.4 µM (inactive)
same,GI50,[38],36.9 µM (inactive)
same,GI50,[39],68.7 µM (inactive)
same,GI50,[40],23.4 µM (inactive)
same,GI50,[41],32.4 µM (inactive)
same,GI50,[42],> 100 µM (inactive)
same,GI50,[43],> 100 µM (inactive)
same,GI50,[44],34 µM (inactive)
same,GI50,[45],63.1 µM (inactive)
same,GI50,[46],> 100 µM (inactive)
same,GI50,[47],> 100 µM (inactive)
same,GI50,[48],43.6 µM (inactive)
same,GI50,[49],> 100 µM (inactive)
same,GI50,[50],> 100 µM
same,GI50,[51],> 100 µM (inactive)
same,GI50,[52],> 100 µM (inactive)
same,GI50,[53],16.4 µM (inactive)
same,GI50,[54],> 100 µM (inactive)
same,GI50,[55],> 100 µM (inactive)
CSC[C@H](NC(=O)COc1cccc2cnccc12)C(=O)NC(Cc1ccccc1)C(O)C(=O)N1CSC[C@H]1C(=O)NC(C)(C)C (stereo partly specified),GI50,[1],29.2 µM (inactive)
same,GI50,[2],36.8 µM (inactive)
same,GI50,[3],24.4 µM (inactive)
same,GI50,[4],> 100 µM (inactive)
same,GI50,[5],> 100 µM (inactive)
same,GI50,[6],68.2 µM (inactive)
same,GI50,[7],78.2 µM (inactive)
same,GI50,[8],26.5 µM (inactive)
same,GI50,[9],38.9 µM (inactive)
same,GI50,[10],> 100 µM (inactive)
same,GI50,[11],36.6 µM (inactive)
same,GI50,[12],> 100 µM (inactive)
same,GI50,[13],> 100 µM (inactive)
same,GI50,[14],38.4 µM (inactive)
same,GI50,[56],82.4 µM (inactive)
same,GI50,[57],11 µM (inactive)
same,GI50,[15],87.5 µM (inactive)
same,GI50,[58],33.8 µM (inactive)
same,GI50,[16],27.5 µM (inactive)
same,GI50,[17],31.8 µM (inactive)
same,GI50,[18],> 100 µM (inactive)
same,GI50,[19],44.5 µM (inactive)
same,GI50,[20],57.3 µM (inactive)
same,GI50,[21],> 100 µM (inactive)
same,GI50,[22],78.3 µM (inactive)
same,GI50,[23],95.3 µM (inactive)
same,GI50,[24],32.4 µM (inactive)
same,GI50,[25],89.3 µM (inactive)
same,GI50,[26],24 µM (inactive)
same,GI50,[27],53.2 µM (inactive)
same,GI50,[28],> 100 µM (inactive)
same,GI50,[29],23.6 µM (inactive)
same,GI50,[30],32.5 µM (inactive)
same,GI50,[31],> 100 µM (inactive)
same,GI50,[32],57.5 µM (inactive)
same,GI50,[33],> 100 µM (inactive)
same,GI50,[34],> 100 µM (inactive)
same,GI50,[35],16.9 µM (inactive)
same,GI50,[36],42.8 µM (inactive)
same,GI50,[37],> 100 µM (inactive)
same,GI50,[38],33.7 µM (inactive)
same,GI50,[39],68.2 µM (inactive)
same,GI50,[40],> 10 µM (inactive)
same,GI50,[41],> 100 µM (inactive)
same,GI50,[43],86.3 µM (inactive)
same,GI50,[44],84.7 µM (inactive)
same,GI50,[45],60.4 µM (inactive)
same,GI50,[46],> 100 µM (inactive)
same,GI50,[47],78.2 µM (inactive)
same,GI50,[48],23 µM (inactive)
same,GI50,[50],> 100 µM
same,GI50,[51],> 100 µM (inactive)
same,GI50,[52],29.2 µM (inactive)
same,GI50,[53],78.9 µM (inactive)
same,GI50,[54],17.7 µM (inactive)
same,GI50,[55],69.8 µM (inactive)
